Measurements taken from ChEMBL document CHEMBL5370591, “A Potent and Narrow-Spectrum Antibacterial against Clostridioides difficile Infection” (J Med Chem, 2023).
Converted amounts (≈) assume the structure as drawn.

Each molecule was assayed on Clostridioides difficile (assay: Antibacterial activity against Clostridium difficile ATCC 43255 measured after 48 hrs by two fold serial dilution method).
Format: functional
With `Oc1cccc(/C=C/c2nc(-c3ccc(OC4CCCC4)cc3)no2)c1` the MIC was greater than 128 µg/mL.
For `NC1CCN(c2ccc(-c3noc(-c4ccc(O)cc4)n3)cc2)CC1`, the MIC was 64 µg/mL (≈ 190 µM).
`Cl.NCc1ccc(-c2nc(-c3ccc(OC4CCCC4)cc3)no2)cc1` was tested, and the MIC was 8 µg/mL.
`COc1ccc(-c2noc(-c3ccc(O)cc3)n2)cc1OC` was tested, and the MIC was greater than 128 µg/mL.
Work on `Oc1ccc(Nc2nc(-c3ccc(OC4CCCC4)cc3)no2)cc1` yielded an MIC of 32 µg/mL (≈ 94.8 µM).
`Oc1ccc(-c2nc(-c3ccc(C(O)C(F)(F)F)cc3)no2)cc1` (configuration not stated) was tested, and the MIC was 32 µg/mL (≈ 95.2 µM).
`FC(F)(F)c1ccc(Oc2ccc(-c3noc(-c4n[nH]cc4NC4CCCCC4)n3)cc2)cc1` gave an MIC greater than 128 µg/mL.
In the case of `N#Cc1ccc(Oc2ccc(-c3noc(-c4ccc(O)cc4)n3)cc2)cc1`, the MIC is reported as greater than 128 µg/mL.
`C[C@@H](NC(=O)OC(C)(C)C)C(=O)N[C@H](C)c1nc(-c2ccc(OC3CCCC3)cc2)no1` showed an MIC greater than 128 µg/mL.
`Cl.O=[N+]([O-])c1c[nH]c(-c2nc(-c3ccc(CN4CCCC4)cc3)no2)n1` gave an MIC greater than 128 µg/mL.
In the case of `O=C(c1ccc(-c2noc(-c3ccc(O)cc3)n2)cc1)C(F)(F)F`, the MIC is reported as 8 µg/mL (≈ 23.9 µM).
`Oc1ccc(Cc2nc(-c3ccc(OC4CCCC4)cc3)no2)cc1` gave an MIC of 16 µg/mL (≈ 47.6 µM).
`Nc1cc(-c2nc(-c3ccc(Oc4ccc(C(F)(F)F)cc4)cc3)no2)cnc1O` was tested, and the MIC was greater than 128 µg/mL.
Molecule `c1cc2cc(-c3nc(-c4ccc5c(c4)OCO5)no3)ccc2[nH]1` has an MIC greater than 128 µg/mL.
`CN1CCN(c2ccc(-c3noc(-c4ccc(O)cc4)n3)cc2)CC1` showed an MIC greater than 128 µg/mL.
Molecule `Clc1cccc(N2CCN(c3noc(-c4ccc5[nH]ccc5c4)n3)CC2)c1` has an MIC greater than 128 µg/mL.
With `OCC#Cc1c[nH]nc1-c1nc(-c2ccc(Oc3ccc(C(F)(F)F)cc3)cc2)no1` the MIC was greater than 128 µg/mL.
Molecule `CCC(C)Nc1c[nH]nc1-c1nc(-c2ccc(Oc3ccc(C(F)(F)F)cc3)cc2)no1` (configuration not stated) has an MIC greater than 128 µg/mL.
Molecule `Nc1c[nH]nc1-c1nc(-c2ccc(Oc3ccc(C(F)(F)F)cc3)cc2)no1` has an MIC greater than 128 µg/mL.
For `Oc1ccc(-c2cc(-c3ccc(Oc4ccccc4)cc3)no2)cc1`, the MIC was greater than 128 µg/mL.
In the case of `O=C(NNC(=O)c1ccc(OC2CCCC2)cc1)c1ccc(O)cc1`, the MIC is reported as greater than 128 µg/mL.
`O=[N+]([O-])c1cc(Oc2ccc(C(F)(F)F)cc2)cnc1-c1noc(-c2ccc(O)cc2)n1` gave an MIC greater than 128 µg/mL.
With `Oc1ccc(Oc2ccc(-c3noc(-c4ccc(O)cc4)n3)cc2)cc1` the MIC was 64 µg/mL (≈ 185 µM).
For `Cl.Oc1ccc(-c2nc(-c3ccc(OC4CCNC4)cc3)no2)cc1` (configuration not stated), the MIC was 64 µg/mL.
`COc1cc(-c2nc(-c3ccc(Oc4ccc(C(F)(F)F)cc4)cc3)no2)cc(F)c1O` was tested, and the MIC was 16 µg/mL (≈ 35.8 µM).
In the case of `Oc1ccc(-c2nc(-c3ccc(Oc4ccccc4)c(Br)c3)no2)cc1`, the MIC is reported as greater than 128 µg/mL.
With `FC(F)(F)c1ccc(Oc2ccc(-c3noc(-c4cc[nH]n4)n3)cc2)cc1` the MIC was greater than 128 µg/mL.
`O=C(Nc1c[nH]nc1-c1nc(-c2ccc(Oc3ccc(C(F)(F)F)cc3)cc2)no1)c1ccccc1` gave an MIC greater than 128 µg/mL.
With `Nc1cncc(-c2nc(-c3ccc(Oc4ccc(C(F)(F)F)cc4)cc3)no2)c1` the MIC was greater than 128 µg/mL.
Molecule `FC(F)(F)c1ccc(Oc2ccc(-c3noc(-c4nc[nH]n4)n3)cc2)cc1` has an MIC greater than 128 µg/mL.
`FC(F)(F)c1ccc(Oc2ccc(-c3noc(-c4cn[nH]n4)n3)cc2)cc1` gave an MIC greater than 128 µg/mL.
Work on `O=[N+]([O-])c1ccc(-c2nc(-c3ccc(OC4CCCC4)cc3)no2)cc1` yielded an MIC greater than 128 µg/mL.
Work on `c1nc2cc(-c3nc(-c4ccc(OC5CCCC5)cc4)no3)ccc2[nH]1` yielded an MIC of 128 µg/mL (≈ 370 µM).
Molecule `O=C1C[C@H](c2nc(-c3ccc(Oc4ccc(C(F)(F)F)cc4)cc3)no2)CN1` has an MIC greater than 128 µg/mL.
For `COc1ccc(-c2nc(-c3ccc(Oc4ccc(C(F)(F)F)cc4)cc3)no2)cc1[N+](=O)[O-]`, the MIC was greater than 128 µg/mL.
With `CC(C)S(=O)(=O)Oc1ccc(-c2noc(-c3ccc(O)cc3)n2)cc1` the MIC was greater than 128 µg/mL.
Molecule `Cn1c(-c2nc(-c3ccc(OC4CCCC4)cc3)no2)cnc1[N+](=O)[O-]` has an MIC of 32 µg/mL (≈ 90.1 µM).
`Oc1ccc(-c2nc(-c3ccc(OC4CCNCC4)cc3)no2)cc1` showed an MIC of 64 µg/mL (≈ 190 µM).
`Oc1ccc(-c2nc(-c3ccc4oc5ccc(C(F)(F)F)cc5c4c3)no2)cc1` was tested, and the MIC was greater than 128 µg/mL.
`FC(F)(F)c1ccc(Oc2ccc(-c3noc(-c4n[nH]cc4Cl)n3)cc2)cc1` showed an MIC greater than 128 µg/mL.
`Oc1ccc(-c2nc(-c3ccc4oc5ccccc5c4c3)no2)cc1` gave an MIC greater than 128 µg/mL.
Work on `C#CCCOc1ccc(-c2noc(-c3ccc(O)cc3)n2)cc1` yielded an MIC greater than 128 µg/mL.
`Oc1ccc(-c2nc(-c3ccc(OC4CC4)cc3)no2)cc1` showed an MIC greater than 128 µg/mL.
`Nc1ccc(-c2nc(-c3ccc(Oc4ccc(C(F)(F)F)cc4)cc3)no2)cc1F` showed an MIC greater than 128 µg/mL.
`O=[N+]([O-])c1ccc(-c2noc(-c3ccc4[nH]ccc4c3)n2)cc1` gave an MIC greater than 128 µg/mL.
With `Oc1ccc(-c2nc(-c3ccc(OC4CCC4)cc3)no2)cc1` the MIC was greater than 128 µg/mL.
In the case of `O=Cc1ccc(-c2noc(-c3ccc(O)cc3)n2)cc1`, the MIC is reported as greater than 128 µg/mL.
`Oc1ccc(-c2nc(N3CCN(c4ccccc4)CC3)no2)cc1` gave an MIC greater than 128 µg/mL.
Work on `C#CCOc1ccc(-c2noc(-c3ccc(O)cc3)n2)cc1` yielded an MIC of 128 µg/mL (≈ 438 µM).
In the case of `COc1ccc2oc3ccc(-c4noc(-c5n[nH]cc5[N+](=O)[O-])n4)cc3c2c1`, the MIC is reported as 64 µg/mL (≈ 170 µM).
`c1cc2cc(-c3nc(-c4ccc5c(c4)CCO5)no3)ccc2[nH]1` showed an MIC greater than 128 µg/mL.
Molecule `Oc1ccc(-c2nc(-c3ccc(OC(F)(F)F)cc3)no2)cc1` has an MIC of 64 µg/mL (≈ 199 µM).
For `c1cc2cc(-c3nc(-c4ccc(OC5CCCC5)cc4)no3)ccc2[nH]1`, the MIC was 8 µg/mL (≈ 23.2 µM).
Molecule `c1cc(-c2noc(-c3ccc4c(c3)CCN4)n2)ccc1OC1CCCC1` has an MIC greater than 128 µg/mL.
With `FC(F)(F)c1ccc(Oc2ccc(-c3noc(-c4ccncc4)n3)cc2)cc1` the MIC was greater than 128 µg/mL.
With `CCCCOc1ccc(-c2noc(-c3ccc(O)cc3)n2)cc1` the MIC was greater than 128 µg/mL.
In the case of `O=C(O)c1ccc(-c2nc(-c3ccc(OC4CCCC4)cc3)no2)cc1`, the MIC is reported as greater than 128 µg/mL.
With `c1cc2cc(-c3nc(-c4ccc5occc5c4)no3)ccc2[nH]1` the MIC was greater than 128 µg/mL.
`Nc1cc(Oc2ccccc2)ccc1-c1noc(-c2ccc(O)cc2)n1` was tested, and the MIC was greater than 128 µg/mL.
Work on `Oc1ccc(-c2nc(-c3ccc(Oc4ccc(I)cc4)cc3)no2)cc1` yielded an MIC of 16 µg/mL (≈ 35.1 µM).
For `CC(C)(C)Oc1ccc(-c2noc(-c3ccc(O)cc3)n2)cc1`, the MIC was greater than 128 µg/mL.
In the case of `Cl.Nc1nc(-c2ccc(OC3CCCC3)cc2)no1`, the MIC is reported as greater than 128 µg/mL.
`Oc1cc(-c2nc(-c3ccc(Oc4ccc(C(F)(F)F)cc4)cc3)no2)cc(F)c1O` gave an MIC greater than 128 µg/mL.
Molecule `FC(F)(F)c1ccc(Oc2ccc(-c3noc(-c4n[nH]cc4Br)n3)cc2)cc1` has an MIC greater than 128 µg/mL.
In the case of `Nc1ccc(-c2nc(-c3ccc(OC4CCCC4)cc3)no2)cc1`, the MIC is reported as greater than 128 µg/mL.
Work on `O=[N+]([O-])c1ccc(-c2nc(-c3ccc(Oc4ccc(C(F)(F)F)cc4)cc3)no2)cc1` yielded an MIC greater than 128 µg/mL.
Molecule `Cl.NCCCCc1nc(-c2ccc(OC3CCCC3)cc2)no1` has an MIC of 128 µg/mL.
`Oc1ccc(-c2noc(-c3ccc(O)cc3)n2)cc1` was tested, and the MIC was 128 µg/mL (≈ 503 µM).
For `C[C@@H](NC(=O)OC(C)(C)C)c1nc(-c2ccc(OC3CCCC3)cc2)no1`, the MIC was greater than 128 µg/mL.
`FC(F)(F)c1ccc(Oc2ccc(-c3noc(-c4n[nH]cc4Nc4c[nH]c5ncccc45)n3)cc2)cc1` was tested, and the MIC was greater than 128 µg/mL.
`CS(=O)(=O)Nc1ccc(-c2nc(-c3ccc(OC4CCCC4)cc3)no2)cc1` was tested, and the MIC was greater than 128 µg/mL.
`CC(C)(C)OC(=O)N1CCC(Nc2c[nH]nc2-c2nc(-c3ccc(Oc4ccc(C(F)(F)F)cc4)cc3)no2)CC1` showed an MIC greater than 128 µg/mL.
In the case of `FC(F)(F)c1ccc(Oc2ccc(-c3noc(-c4ccc(Br)cc4)n3)cc2)cc1`, the MIC is reported as greater than 128 µg/mL.
`FC(F)(F)c1ccc(Oc2ccc(-c3noc(-c4c[nH]cn4)n3)cc2)cc1` showed an MIC of 8 µg/mL (≈ 21.5 µM).
In the case of `FC(F)(F)c1ccc(Oc2ccc(-c3noc(-c4n[nH]cc4Nc4n[nH]c5ccccc45)n3)cc2)cc1`, the MIC is reported as greater than 128 µg/mL.
In the case of `Oc1ccc(-c2nc(-c3ccc4[nH]c5ccccc5c4c3)no2)cc1`, the MIC is reported as greater than 128 µg/mL.
For `Clc1ccc(N2CCN(c3noc(-c4ccc5[nH]ccc5c4)n3)CC2)cc1Cl`, the MIC was greater than 128 µg/mL.
